Measurements as given in US9375406B2, “Substituted pyrimidines for mobilizing cells expressing a type 4 CXC chemokine receptor” (TaiGen Biotechnology Co., Ltd., priority 2014, dated 2016).

Tested on: T acute lymphoblastic leukemia (T-ALL) cells
Description: Mononuclear human leukemia cells were prepared using Ficoll gradient centrifugation and cryopreserved in liquid nitrogen. The frozen cells were thawed quickly and washed with PBS to remove the cryopreservation reagent. NOD/SCID mice (Institute of Cellular and Organismic Biology, Academia Sinica) were preconditioned with 200 centigray of total body irradiation at 6-8 weeks of age. The leukemia cells were then transplanted to the preconditioned NOD/SCID mice via tail vein. The resulting leukemia blast cells, i.e., T acute lymphoblastic leukemia (T-ALL) cells and acute myelogenous leukemia (AML) cells, were recovered from spleen and used in experiments as described below.
Mice were monitored for leukemia cell engraftment and dissemination by the appearance of human CD45^+ cells in mouse peripheral blood, which were sampled weekly after the 3rd week of cell transplantation. Peripheral blood samples were taken from the tail vein and red blood cells were lysed in ammonium chloride and resuspensed in Phosphate buffered saline (PBS) plus 2% Fetal Bovine Serum (FBS) before cell staining. […] After immunostaining, cells were washed, suspended in PBS plus 2% FBS, and analyzed using FACS Calibur (BD Biosciences). […]

`CC[C@]1(O)C[C@H]2CN(CCc3c([nH]c4ccccc34)[C@@](C(=O)OC)(c3cc4c(cc3OC)N(C=O)[C@H]3[C@@](O)(C(=O)OC)[C@H](OC(C)=O)[C@]5(CC)C=CCN6CC[C@]43[C@@H]65)C2)C1` [vincristine] was tested, and the average survival time (vincristine (0.5 mg/kg ip) alone, days 14, 21, 28) was 73.6 ± 7.1 days and the “time until which CD45+ cells in the peripheral blood were not detected” value (vincristine (0.5 mg/kg) alone) was 8 weeks.
